The values that follow come from patent US20160002204A1 (Board of Regents, The University of Texas System, priority 2014, published 2016).

The test system of experiment [1] is A549 cells. Briefly: A549 proliferation (viability) assay, Cell Titer Fluor, 72 hours. The note with it: Homo sapiens. The format is cell-based. An outline of the steps:
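A549 cells in RPMI 1640 with 10% dialyzed FBS were seeded at 1000 cells/well, grown 24 h, then exposed to compound (0.5% DMSO final) for 72 h at 37 °C, 5% CO2. Viability was read by Cell Titer Fluor fluorescence; EC50 from four-parameter logistic fit.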

In experiment [2] the target is T1, GLS1 (purified recombinant human GAC) (Homo sapiens, UniProt O94925).
T1 sequence (O94925 55-598 isoform O94925-3 limits assumed): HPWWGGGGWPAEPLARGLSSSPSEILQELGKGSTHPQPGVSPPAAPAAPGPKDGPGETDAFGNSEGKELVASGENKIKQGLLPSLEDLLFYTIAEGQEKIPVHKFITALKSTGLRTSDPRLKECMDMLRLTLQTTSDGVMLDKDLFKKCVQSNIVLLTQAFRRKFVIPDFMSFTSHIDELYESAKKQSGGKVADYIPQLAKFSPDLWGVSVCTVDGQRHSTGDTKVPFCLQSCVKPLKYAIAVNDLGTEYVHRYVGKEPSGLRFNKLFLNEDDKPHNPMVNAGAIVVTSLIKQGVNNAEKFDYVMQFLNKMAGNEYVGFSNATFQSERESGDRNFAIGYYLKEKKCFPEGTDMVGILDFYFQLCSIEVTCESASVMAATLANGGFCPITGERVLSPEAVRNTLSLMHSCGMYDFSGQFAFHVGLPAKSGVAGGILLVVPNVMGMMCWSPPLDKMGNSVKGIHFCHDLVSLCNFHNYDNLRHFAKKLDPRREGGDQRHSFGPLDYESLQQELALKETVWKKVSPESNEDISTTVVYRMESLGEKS
Briefly: GLS1 enzymatic activity assay (dual-coupled, Amplex UltraRed/resorufin). The class given is biochemical. An outline of the steps:
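GAC activity measured by coupling glutamate to glutamate oxidase and HRP, generating resorufin from Amplex UltraRed. Enzyme (2 nM) preincubated with 50 mM potassium phosphate 10 min at room temperature, then inhibitor 10 min; 1 mM glutamine substrate, 1% DMSO. Fluorescence 530/590 nm, kinetic or 20-min endpoint; IC50 from four-parameter logistic fit.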

`Cc1ccc(CNC(=O)c2cn(CCC(F)Cn3ccc(NC(=O)Cc4ccccc4)cc3=O)nn2)cn1` (stereo not drawn) [Example 148, 1-{3-fluoro-4-[2-oxo-4-(2-phenylacetamido)-1,2-dihydropyridin-1-yl]butyl}-N-[(6-methylpyridin-3-yl)methyl]-1H-1,2,3-triazole-4-carboxamide] came in with an EC50 in experiment [1] of 500 to 5000 nM. Also, the IC50 in experiment [2] is below 100 nM.

In experiment [1], `O=C(Nc1ccn(CCC(F)Cn2cc(C(=O)NCc3cccc(OC(F)(F)F)c3)nn2)c(=O)c1F)OC1CCC1` (stereo not drawn) [Example 376, cyclobutyl N-(3-fluoro-1-{3-fluoro-4-[4-({[3-(trifluoro-methoxy)phenyl]methyl}carbamoyl)-1H-1,2,3-triazol-1-yl]butyl}-2-oxo-1,2-dihydropyridin-4-yl)carbamate] gave a half-maximal effective concentration (EC50) below 100 nM. Further, in experiment [2], the 50% inhibitory concentration (IC50) was below 100 nM.

Compound `O=C(CN1CCCC(F)(F)C1)Nc1ccn(CCC(F)Cn2cc(C(=O)NCc3cccc(OC(F)(F)F)c3)nn2)c(=O)c1F` (stereo not drawn) [Example 295, 1-(4-{4-[2-(3,3-difluoropiperidin-1-yl)acetamido]-3-fluoro-2-oxo-1,2-dihydropyridin-1-yl}-2-fluorobutyl)-N-{[3-(trifluoromethoxy)phenyl]methyl}-1H-1,2,3-triazole-4-carboxamide] had a concentration for a half-maximal effect (EC50) in experiment [1] below 100 nM. Besides, the half-maximal inhibitory concentration (IC50) in experiment [2] was below 100 nM.

On to `O=C(Cc1ccccc1)Nc1ccn(CCC(F)Cn2cc(C(=O)NCc3cc(Br)ccn3)nn2)c(=O)c1` (stereo not drawn) [Example 163, N-[(4-bromopyridin-2-yl)methyl]-1-{2-fluoro-4-[2-oxo-4-(2-phenylacetamido)-1,2-dihydropyridin-1-yl]butyl}-1H-1,2,3-triazole-4-carboxamide], for which, in experiment [1], the EC50 fell in the range of 100 to 500 nM. The concentration for half-maximal inhibition (IC50) in experiment [2] is below 100 nM.

For `CC(C(=O)Nc1ccn(CCC(F)Cn2cc(C(=O)NCc3cncc(C(F)(F)F)c3)nn2)c(=O)c1F)N1CCCCC1` (stereo not drawn) [Example 352, 1-(2-fluoro-4-{3-fluoro-2-oxo-4-[2-(piperidin-1-yl)propanamido]-1,2-dihydropyridin-1-yl}butyl)-N-{[5-(trifluoromethyl)pyridin-3-yl]methyl}-1H-1,2,3-triazole-4-carboxamide], the EC50 in experiment [1] is below 100 nM. The IC50 in experiment [2] was below 100 nM.

Take `O=C(NCc1cncc(C(F)(F)F)c1)c1cn(CC(F)CCn2ccc(NC(=O)C(F)c3ccccc3)c(F)c2=O)nn1` (stereo not drawn) [Example 362, 1-{2-fluoro-4-[3-fluoro-4-(2-fluoro-2-phenylacetamido)-2-oxo-1,2-dihydropyridin-1-yl]butyl}-N-{[5-(trifluoromethyl)pyridin-3-yl]methyl}-1H-1,2,3-triazole-4-carboxamide]: in experiment [1], the EC50 is below 100 nM. In addition, the 50% inhibitory concentration (IC50) in experiment [2] was below 100 nM.

`O=C(CC1CC1(F)F)Nc1ccn(CCCCn2cc(C(=O)NCc3cccc(OC(F)(F)F)c3)nn2)c(=O)c1` (stereo not drawn) [Example 168, 1-(4-{4-[2-(2,2-difluorocyclopropyl)acetamido]-2-oxo-1,2-dihydropyridin-1-yl}butyl)-N-{[3-(trifluoromethoxy)phenyl]methyl}-1H-1,2,3-triazole-4-carboxamide] gave an EC50 in experiment [1] of 500 to 5000 nM. Moreover, the IC50 in experiment [2] was below 100 nM.

In the case of `COc1cccc(CC(=O)Nc2ccn(CCC(F)Cn3cc(C(=O)NCc4cccc(OC(F)(F)F)c4)nn3)c(=O)c2)n1` (stereo not drawn) [Example 251, 1-(2-fluoro-4-{4-[2-(6-methoxypyridin-2-yl)acetamido]-2-oxo-1,2-dihydropyridin-1-yl}butyl)-N-{[3-(trifluoromethoxy)phenyl]methyl}-1H-1,2,3-triazole-4-carboxamide], the half-maximal effective concentration (EC50) in experiment [1] is 100 to 500 nM. Besides, in experiment [2], the concentration for half-maximal inhibition (IC50) was below 100 nM.

For `O=C(CC1CCC1)Nc1ccn(CCC(F)Cn2cc(C(=O)NCc3ccc(C(F)(F)F)cn3)nn2)c(=O)c1F` (stereo not drawn) [Example 390, 1-{4-[4-(2-cyclobutylacetamido)-3-fluoro-2-oxo-1,2-dihydropyridin-1-yl]-2-fluorobutyl}-N-{[5-(trifluoromethyl)pyridin-2-yl]methyl}-1H-1,2,3-triazole-4-carboxamide], the EC50 in experiment [1] is below 100 nM. Moreover, the concentration for half-maximal inhibition (IC50) in experiment [2] is 100 to 500 nM.
